{"source": "patent US7862837B2", "about": "“Herbal composition” (Piramal Life Sciences Limited, priority 2006, dated 2011)", "key": {"TNF-α": {"test_system": "TNF-α", "experiment": "LPS-induced TNF-α production in hPBMCs (primary screening, ELISA)", "format": "cell-based, human", "conditions": "LPS-stimulated hPBMCs", "protocol": "TNF-α production by lipopolysaccharides (LPS) in hPBMCs was measured according to the method described by Jansky, L. et al (Physiol. Res. 52: 593-598, (2003)). Blood was collected from healthy donors into Ethylene diamine tetra acetic acid Potassium salt (Potassium EDTA) vacutainer tubes (BD vacutainer). The PBMCs were isolated using gradient centrifugation in Histopaque-1077 solution (Sigma). Isolated PBMCs were suspended in Roswell Park Memorial Institute (RPMI) 1640 culture medium (Gibco BRL, Pasley, UK) containing 10% fetal bovine serum (FBS) (Hyclone, Utah, USA), 100 U/ml penicillin (Sigma Chemical Co. St Louis, Mo.) and 100 μg/ml streptomycin (Sigma Chemical Co. St Louis, Mo.). The cell concentration was adjusted to 1×10^6 cells/ml. The viability as determined by trypan blue dye exclusion was uniformly ≧98%. The cell suspension (100 μl) was added to the wells of a 96-well culture plate. Following cell plating, 79 μl of the culture medium and 1 μl of eight different concentrations of the test compounds (final concentration 0.03, 0.1, 0.3, 1, 3, 10, 30, 100 μg/ml) dissolved in dimethylsulfoxide, (DMSO) Sigma, Mo., USA) were added to the cells. The final concentration of DMSO was adjusted to 0.5%. The vehicle (0.5% DMSO) was used as control. Rolipram (100, 300 μM) was used as a standard. The plates were incubated for 30 min at 37° C. in an atmosphere of 5% carbon dioxide (CO2). Finally, 20 μl (10 μg/ml) per well of LPS, (Escherchia coli 0127:B8, Sigma Chemical Co., St. Louis, Mo.) was added, for a final concentration of 1 μg/ml. The plates were incubated at 37° C. for 5 h in an atmosphere of 5% carbon dioxide (CO2). To assess the cytotoxic effect of the plant extracts, the cellular viability test was performed using 3-(4,5-dimethylthiazol-2-yl)-5-(3-carboxymethoxyphenyl)-2-(4-sulfonyl)-2H-tetrazolium) (MTS) reagent after 5 h of incubation. Supernatants were harvested and assayed for TNF-α by ELISA as described by the manufacturer (OptiElA ELISA sets, BD Biosciences, Pharmingen). […] Percent cytotoxicity of the test compound compared to control is evaluated."}, "interleukin-1β (IL-1β)": {"test_system": "interleukin-1β (IL-1β)", "experiment": "IL-1β released by LPS-stimulated hPBMCs (ELISA)", "format": "cell-based, human", "protocol": "(§1) TNF-α production by lipopolysaccharides (LPS) in hPBMCs was measured according to the method described by Jansky, L. et al (Physiol. Res. 52: 593-598, (2003)). Blood was collected from healthy donors into Ethylene diamine tetra acetic acid Potassium salt (Potassium EDTA) vacutainer tubes (BD vacutainer). The PBMCs were isolated using gradient centrifugation in Histopaque-1077 solution (Sigma). Isolated PBMCs were suspended in Roswell Park Memorial Institute (RPMI) 1640 culture medium (Gibco BRL, Pasley, UK) containing 10% fetal bovine serum (FBS) (Hyclone, Utah, USA), 100 U/ml penicillin (Sigma Chemical Co. St Louis, Mo.) and 100 μg/ml streptomycin (Sigma Chemical Co. St Louis, Mo.). The cell concentration was adjusted to 1×10^6 cells/ml. The viability as determined by trypan blue dye exclusion was uniformly ≧98%. The cell suspension (100 μl) was added to the wells of a 96-well culture plate. […] Percent cytotoxicity of the test compound compared to control is evaluated.\nThe effect of the plant extract on the proinflammatory cytokines: interleukin-1β (IL-1β), interleukin-6 (IL-6) and interleukin-8 (IL-8) was measured using the supernatants generated in the primary screening assay. […]"}, "[1]": {"test_system": "human peripheral blood mononuclear cells", "experiment": "Cellular viability test (MTS) in hPBMCs", "format": "cell-based", "protocol": "as §1, with “plate. Following cell plating, 79 μl of the culture medium and 1 μl of eight different concentrations of the test compounds (final concentration 0.03, 0.1, 0.3, 1, 3, 10, 30, 100 μg/ml) dissolved in dimethylsulfoxide, (DMSO) Sigma, Mo., USA) were added to the cells. The final concentration of DMSO was adjusted to 0.5%. The vehicle (0.5% DMSO) was used as control. Rolipram (100, 300 μM) was used as a standard.” for “plate.”"}}}
{"molecule": "CC1=CCCC2C1(C)CCC(C)C2(C)CCC1=CC(=O)OC1O", "note": "(stereo not drawn) [Compound 1, 16-hydroxycleroda-3,13(14)-dien-15,16-olide]", "values": [{"measurement": "IC50, TNF-α inhibition", "setting": "TNF-α", "value": 5.9, "unit": "µg/mL"}, {"measurement": "IC50 against IL-1", "setting": "interleukin-1β (IL-1β)", "value": 0.4, "unit": "µg/mL"}]}
{"molecule": "COc1ccc(C2CNC(=O)C2)cc1OC1CCCC1", "note": "(stereo not drawn) [Rolipram]", "values": [{"measurement": "inhibition at 100 µM", "setting": "TNF-α; Homo sapiens, 100 μM, read-out: % Inhibition of TNF-α release", "value": 100, "unit": "%"}, {"measurement": "inhibition at 300 µM", "setting": "TNF-α; Homo sapiens, 300 μM, read-out: % Inhibition of TNF-α release", "value": 100, "unit": "%"}, {"measurement": "% Toxicity 5 h", "setting": "[1]; 100 μM", "value": 2, "unit": "%"}, {"measurement": "% Toxicity 5 h", "setting": "[1]; 300 μM", "value": 10, "unit": "%"}]}
